Source: patent USRE48253E1, “Methotrexate adjuvants to reduce toxicity and methods for using the same” (Tosk, Inc., priority 2008, dated 2020)

Tested on: AS283 human lymphoma xenografts
Assay: Mouse Study V: xenograft with AS283 implants
Assay type: in vivo, C.B.-17 SCID mice
Settings: p=1.0
Method: Six-week-old male SCID mice were implanted with fragments of AS283 human lymphoma tumors. The tumors were allowed to reach 75-198 mg in weight (75-198 mm^3 in size) before the start of treatment. The experiment consisted of two treatment groups and one vehicle-treated control group, with ten animals per group, for a total of 30 mice on the first day of treatment.
TK-112690 was administered by ip injection [twice every 2 days for 5 injections with six hour interval (q6h×2, q2d×5)] at a dosage of 30 mg/kg/injection. MTX was administered by ip injection q2d×5 at a dosage of 5.0 mg/kg/injection three hours after the TK-112690 injection. The control group was treated with both vehicles, which were administered on the corresponding compound schedules.
Six-week-old male C.B.-17 SCID mice were acclimated in the laboratories for seven days prior to experimentation. Thirty-to-forty mg fragments of AS283 human lymphoma tumor were implanted sc in mice near the right flank using a 12-gauge trocar needle and allowed to grow. […]
The sc tumors were measured and the animals were weighed thrice weekly starting the day of the first treatment. Tumor volume was determined by caliper measurements (mm) and using the formula for an ellipsoid sphere: L×W^2/2=mm^3, where L and W refer to the larger and smaller perpendicular dimensions collected at each measurement. […]

SMILES: Cc1cn2c(nc1=O)O[C@H]1[C@H](O)[C@@H](CO)O[C@H]12 [TK-112690, 2,2′-anhydro-5-methyluridine]
- tumor volumes Day 21, MTX+TK-112690 vs MTX: no statistical difference
